Source: ChEMBL document CHEMBL3608221, “Regulating the master regulator: Controlling heat shock factor 1 as a chemotherapy approach” (Bioorg Med Chem Lett, 2015)

Tests used:
[1] = biological target: T1, Heat shock factor protein 1 (Homo sapiens) (UniProt Q00613); assay: Inhibition of HSF1 in human HeLa cells assessed as potentiation of radicicol and heat-induced increase in cell death at 60 nM relative to radicicol and heat alone; format: cell-based; parameters: scale not given: the % may be the effect or the level left
T1 sequence (whole entry): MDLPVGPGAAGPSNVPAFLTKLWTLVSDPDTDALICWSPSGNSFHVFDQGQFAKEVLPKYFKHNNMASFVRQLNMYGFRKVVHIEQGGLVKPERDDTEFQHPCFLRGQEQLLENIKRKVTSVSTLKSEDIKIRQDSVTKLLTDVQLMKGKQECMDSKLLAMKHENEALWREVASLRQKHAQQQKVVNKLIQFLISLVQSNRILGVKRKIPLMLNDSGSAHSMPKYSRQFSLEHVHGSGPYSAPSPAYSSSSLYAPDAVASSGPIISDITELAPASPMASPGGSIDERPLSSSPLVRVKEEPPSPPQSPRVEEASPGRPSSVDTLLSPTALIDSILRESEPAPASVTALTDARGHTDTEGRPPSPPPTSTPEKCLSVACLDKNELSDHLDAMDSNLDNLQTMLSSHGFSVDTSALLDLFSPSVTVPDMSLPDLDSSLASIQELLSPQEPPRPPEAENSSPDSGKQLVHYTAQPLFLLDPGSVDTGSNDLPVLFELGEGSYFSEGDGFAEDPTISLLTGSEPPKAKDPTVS

[2] = biological target: T1, Heat shock factor protein 1 (Homo sapiens); assay: Inhibition of HSF1 in human INA63 cells assessed as potentiation of NVP-AUY-922-induced reduction in cell proliferation at 5 nM relative to NVP-AUY-922 alone; format: cell-based; parameters: scale not given: the % may be the effect or the level left
[3] = biological target: T1, Heat shock factor protein 1 (Homo sapiens); assay: Inhibition of HSF1 in human MM.1S cells assessed as potentiation of NVP-AUY-922-induced reduction in cell proliferation at 6 nM relative to NVP-AUY-922 alone; format: cell-based; parameters: scale not given: the % may be the effect or the level left
[4] = biological target: T1, Heat shock factor protein 1 (Homo sapiens); assay: Inhibition of HSF1 in human H929 cells assessed as potentiation of 17-AAG-induced icrease in cell death at 100 nM relative to 17-AAG alone; format: cell-based; parameters: scale not given: the % may be the effect or the level left
[5] = biological target: T1, Heat shock factor protein 1 (Homo sapiens); assay: Inhibition of HSF1 in human HL60 cells assessed as potentiation of 17-AAG-induced increase in apoptosis at 400 uM relative to 17-AAG alone; format: cell-based; parameters: scale not given: the % may be the effect or the level left; settings: HL-60
[6] = biological target: T1, Heat shock factor protein 1 (Homo sapiens); assay: Inhibition of HSF1 in human HL60 cells assessed as potentiation of 17-AAG-induced reduction in cologenicity at 400 uM relative to 17-AAG alone; format: cell-based; parameters: scale not given: the % may be the effect or the level left; settings: HL-60
[7] = biological target: T1, Heat shock factor protein 1 (Homo sapiens); assay: Inhibition of HSF1 in human ASB244 cells assessed as potentiation of geldanamycin-induced reduction in cell proliferation at 20 uM relative to geldanamycin alone; format: cell-based; parameters: scale not given: the % may be the effect or the level left
[8] = biological target: T1, Heat shock factor protein 1 (Homo sapiens); assay: Inhibition of HSF1 in human ASB244 cells assessed as potentiation of geldanamycin-induced reduction in cell migration at 10 uM relative to geldanamycin alone; format: cell-based; parameters: scale not given: the % may be the effect or the level left
[9] = biological target: T1, Heat shock factor protein 1 (Homo sapiens); assay: Inhibition of HSF1 in human ASB145 cells assessed as potentiation of geldanamycin-induced reduction in cell proliferation at 20 uM relative to geldanamycin alone; format: cell-based; parameters: scale not given: the % may be the effect or the level left
A2058 [10] = assay: Cytotoxicity against human A2058 cells in absence of HSF1 knock down treatment; format: functional, cell-based
A2058 [11] = assay: Cytotoxicity against human A2058 cells in presence of HSF1 knock down treatment; format: functional, cell-based
A-375 [12] = assay: Cytotoxicity against human A375 cells in presence of HSF1 knock down treatment; format: functional, cell-based
A-375 [13] = assay: Cytotoxicity against human A375 cells in absence of HSF1 knock down treatment; format: functional, cell-based
[14] = biological target: T1, Heat shock factor protein 1 (Homo sapiens); assay: Inhibition of HSF1 in human HCT116 cells assessed as potentiation of SM253-induced reduction in HSF1 at 50 uM relative to SM253 alone; format: cell-based; parameters: scale not given: the % may be the effect or the level left; settings: HCT-116
[15] = biological target: T1, Heat shock factor protein 1 (Homo sapiens); assay: Inhibition of HSF1 in human HCT116 cells assessed as potentiation of SM258-induced reduction in HSF1 at 30 uM relative to SM258 alone; format: cell-based; parameters: scale not given: the % may be the effect or the level left; settings: HCT-116
[16] = biological target: T1, Heat shock factor protein 1 (Homo sapiens); assay: Inhibition of HSF1 in human HCT116 cells assessed as potentiation of SM253-induced reduction in HSF1 at 5 uM relative to SM253 alone; format: cell-based; parameters: scale not given: the % may be the effect or the level left; settings: HCT-116
[17] = biological target: T1, Heat shock factor protein 1 (Homo sapiens); assay: Inhibition of HSF1 in human HCT116 cells assessed as potentiation of SM253-induced increase in cell death at 5 uM relative to SM253 alone; format: cell-based; parameters: scale not given: the % may be the effect or the level left; settings: HCT-116
[18] = biological target: T1, Heat shock factor protein 1 (Homo sapiens); assay: Inhibition of HSF1 in human MIAPaCa2 cells assessed as potentiation of SM253-induced increase in cell death at 50 uM relative to SM253 alone; format: cell-based; parameters: scale not given: the % may be the effect or the level left; settings: MIA PaCa-2
[19] = biological target: T1, Heat shock factor protein 1 (Homo sapiens); assay: Inhibition of HSF1 in human HeLa cells assessed as potentiation of radicicol-induced increase in cell death at 2 uM relative to radicicol alone; format: cell-based; parameters: scale not given: the % may be the effect or the level left
[20] = biological target: T1, Heat shock factor protein 1 (Homo sapiens); assay: Inhibition of HSF1 in human HCT116 cells assessed as potentiation of SM253-induced increase in cell death at 50 uM relative to SM253 alone; format: cell-based; parameters: scale not given: the % may be the effect or the level left; settings: HCT-116
[21] = biological target: T1, Heat shock factor protein 1 (Homo sapiens); assay: Inhibition of HSF1 in human HCT116 cells assessed as potentiation of SM258-induced reduction in HSF1 at 15 uM relative to SM258 alone; format: cell-based; parameters: scale not given: the % may be the effect or the level left; settings: HCT-116
[22] = biological target: T1, Heat shock factor protein 1 (Homo sapiens); assay: Inhibition of HSF1 in human MIAPaCa2 cells assessed as potentiation of SM253-induced reduction in HSF1 at 50 uM relative to SM253 alone; format: cell-based; parameters: scale not given: the % may be the effect or the level left; settings: MIA PaCa-2
[23] = biological target: T1, Heat shock factor protein 1 (Homo sapiens); assay: Inhibition of HSF1 in human HCT116 cells assessed as potentiation of SM258-induced increase in cell death at 15 uM relative to SM258 alone; format: cell-based; parameters: scale not given: the % may be the effect or the level left; settings: HCT-116
[24] = biological target: T1, Heat shock factor protein 1 (Homo sapiens); assay: Inhibition of HSF1 in human HCT116 cells assessed as potentiation of SM258-induced increase in cell death at 30 uM relative to SM258 alone; format: cell-based; parameters: scale not given: the % may be the effect or the level left; settings: HCT-116
[25] = biological target: T2, Heat shock factor protein 1 (Homo sapiens, UniProt Q00613); assay: Inhibition of HSF1 (unknown origin) assessed as reduction in HSF1--mediated HSP transcription
T2 sequence (Q00613 whole entry): T1 sequence (whole entry)

HCT-116 = assay: Antitumor activity against human HCT116 cells xenografted in mouse assessed as reduction in tumor size at 50 mg/kg; format: functional
[26] = Induction of cell death in human MIAPaCa2 cells at 50 uM; format: functional, MIA PaCa-2
[27] = Antitumor activity against human MIAPaCa2 cells xenografted in mouse assessed as reduction in tumor volume at 150 mg/kg; format: functional, MIA PaCa-2; parameters: scale not given: the % may be the effect or the level left
[28] = Induction of cell death in human PANC1 cells at 50 uM; format: functional, PANC-1

In the case of `CC(C)[C@]12O[C@H]1[C@@H]1O[C@]13[C@]1(O[C@H]1C[C@H]1C4=C(CC[C@@]13C)C(=O)OC4)[C@@H]2O`, the Activity [1] is reported as 45%, the Activity [2] is reported as 45% and the Activity [3] is reported as 35%. For the same compound, the Activity [4] was 40%.

For `O=CN1CC/C(=C/c2ccc3c(c2)OCO3)C1=O`, the Activity [5] was 20%, the Activity [6] was 99% and the Activity [7] was 52%. It also gave an Activity [8] of 75% and an Activity [9] of 72%.

With `COc1cccc(-c2cc(F)ccc2[C@H]2Cc3nc(N)nc(C)c3C(=O)N2)n1` the IC50 (A2058 [10]) was 12.7 nM, the IC50 (A2058 [11]) was 5.2 nM and the IC50 (A-375 [12]) was 6 nM. The IC50 (A-375 [13]) was 19 nM.

In the case of `CCC1CN2CCc3cc(OC)c(OC)cc3C2CC1CC1NCCc2ccccc21` (centres undefined), the Activity [14] is reported as 60%, the Activity [15] is reported as greater than 99% and the Activity [16] is reported as 30%. The Activity [17] was 50%, the Activity [18] was 64% and the Activity [19] was 30%. It also gave an Activity [20] of 77%, an Activity [21] of 50% and an Activity [22] of 55%. It also gave an Activity [23] of 77% and an Activity [24] of 95%.

For `CNc1ccc([N+](=O)[O-])c(Nc2ccc3[nH]ncc3c2)n1`, the IC50 [25] was 1200 nM and the inhibition in vivo at 50 mg/kg (HCT-116) was 50%.

`CCCCCCCc1ccc(C#Cc2nc(C(N)=O)n([C@@H]3O[C@H](CO)[C@@H](O)[C@H]3O)n2)cc1` showed an Activity [26] of 90%, an Activity [27] of 60% and an Activity [28] of 80%.
